Key:
[1] = Pharmacokinetic study in rat; type: in vivo, Sprague–Dawley rats; conditions: male, Sprague-Dawley, plasma; for AUC(0-inf): read-out: AUCINF obs
Protocol: The stock solution of SB4 and SB5 was prepared at a concentration of 1.0 mg/mL in DMSO. Additionally, the standard solutions for SB4 and SB5 were prepared by diluting with 60% ACN (0.1% formic acid) in distilled water (DW). The final concentrations of the prepared standard solutions were 5, 10, 25, 50, 100, 250, 500, and 1000 ng/mL, and they were prepared in 1.5 mL polyethylene microtubes (Axygen Inc., Union City, CA, USA). Furthermore, quality control samples were manufactured using DMSO, with final concentrations of 15 ng/mL (low quality control), 80 ng/mL (mid quality control), and 800 ng/mL (high quality control) using 60% ACN (0.1% formic acid) in DW. The IS solution (Deucravacitinib) was also prepared in DMSO and diluted to a final concentration of 10 ng/mL in 60% ACN (0.1% formic acid) in DW.
The sample stored at −80°C was dissolved at room temperature, vortexed for 3 s, and a protein precipitation method using ACN was employed. In a 1.5 mL polyethylene microtube, 10 µL of the IS (10 ng/mL) was added to 45 µL of plasma, and 500 µL of ACN was added. Next, the sample was mixed in a vortex (M37610‐33; Barnstead International, USA) for 3 min. Then, 500 µL of the supernatant was centrifuged at 10000 g for 10 min and transferred to a LC vial, from which 10 µL was injected into the LC–MS/MS system.
The LC–MS/MS system comprises a SCIEX Triple Quad 6500+ system (Melbourne, Australia) coupled with a Shimadzu Nexera series SCL‐40 system controller, DGU‐405 degassing unit, LC‐40D X3 solvent delivery module, SIL‐40C X3 autosampler, and CTO‐40C column oven (Melbourne, Australia).
Chromatographic separations were performed using a Synergi 4 µm Hydro‐RP 80 Å, LC Column (30 × 2 mm). The mobile phase consisted of 0.1% FA in DW and ACN in 0.1% FA. The optimal flow rate was 0.5 mL/min, and the linear gradient elution profile was as follows: 0–0.5 min 20% B, 0.5–1.0 min 80% B, 1.0–2.0 min 80% B, 2.0–2.5 min 20% B, 2.5–3.0 min 20% B. The injection volume was 5 µL, and the total analysis time per sample was 3.0 min. The column oven temperature was maintained at 40°C.
The sample was ionized by an electrospray ionization source. The mass spectrometer was operated in positive ion mode with MRM scan mode for high sensitivity and selectivity. The turbo ion gas temperature was set at 400°C. To optimize the source parameters and compound parameters, a standard solution of 10 ng/mL was injected into the mass spectrometer at a rate of 7 µL/min through an infusion pump. The MRM transitions selected for quantification were m/z 375.075 to 150.100 for DA, m/z 447.113 to 415.200 for SB‐04, m/z 461.119 to 429.100 for SB‐05, and m/z 426.093 to 358.000 for the IS (Deucravacitinib). The system operating programs were Analyst software (version 1.7.2) and Chromelon.
The animal testing procedure was approved by the Animal Management Committee of Dankook University (21‐038). Seven‐week‐old male Sprague–Dawley rats (weighing 250–290 g) were purchased from Samtaco Inc. (Osan, South Korea). All rats were housed randomly in groups of four, maintained under appropriate lighting and room conditions (22 ± 2°C, relative humidity 50 ± 10%, with a 12‐h light/dark cycle). Prior to the experiments, the rats had free access to food (Samtaco Inc.) and water in their cages. The animal experiments were conducted after a minimum environmental adaptation period of 1 week. On the day of the experiments, the jugular vein of each rat was cannulated individually with polyethylene tubing (Clay Adams, Parsippany, NJ, USA) under anesthesia. The cannula was exteriorized to the dorsal side of the neck, where the cannula terminated with a long silastic tubing (Dow Corning, Midland, MI, USA). The silastic tube was covered with a wire to allow free movement of the rat. Each rat was housed individually in a rat metabolic cage (Daejong Scientific Company, Seoul, Korea) and was allowed to recover from anesthesia for 4–5 h before the study began. The rats were not restrained during the experimental period. […]

NIH3T3 cells = test: MTT cell viability, NIH3T3; type: cell-based; conditions: Mus musculus, 48 h, MTT assay
Protocol: (§1) Cells (3 × 10^3 cells/well) were seeded on a 96‐well plate, grown overnight, and then treated with compounds at indicated concentrations for 48 h. After incubation with MTT for 4 h at 37°C, cells were lysed with 150 µL of DMSO (Sigma–Aldrich, St. Louis, USA). Absorbance was measured at 570 nm on a microplate reader with the Gen5 software (v.2.03.1; BioTek, Winooski, VT, USA).

caspase 3/7 in CRC cells = test: Caspase-Glo 3/7 activity; type: cell-based, human; conditions: 10 µM, 48 h, relative to DMSO
Protocol: Caspase 3/7 activity was determined with a Caspase-Glo 3/7 assay kit (Promega). CRC cells were seeded in 96 well plates, 10000 per well cells, with media containing 2% FBS. Treatments were applied after overnight incubation, incubated for 48 hours. After treatment, Caspase-Glo reagent was added to each well and incubated in the dark for 1 hour. […] was recorded with the GloMax® Microplate Reader.

CRC cells = test: Transwell invasion assay; type: cell-based, human; conditions: 5 µM, 24 h, versus vehicle-treated control
[2] = test system: CaCo2, DLD1, HT29, HCT116, and SW620 cells; test: Cell cycle analysis by flow cytometry; type: cell-based, human; conditions: 10 µM, 48 h
Protocol: Cells were cultured in a six‐well plate at the density of 2 × 10^5 cells/well until adherence. Cells were treated with DMSO or compound for 48 h. Apoptosis or cell cycle experiments were then performed. For apoptosis analysis, cells were harvested and washed with PBS, resuspended in 100 µL of 1× binding buffer followed by staining with 4 µL of Annexin V–FITC (BD, Biosciences, San Jose, CA, USA), and 8 µL of 50 µg/mL propidium iodide (PI; BD Biosciences, San Jose, CA, USA) for 30 min in the dark. For cell cycle analysis, cells were washed with FACS washing buffer, incubated with trypsin solution, followed by RNase A for 10 min at room temperature. Cells were centrifuged and pellets were collected and stained with 100 µL of 4 mg/mL PI (Sigma–Aldrich) for 2 h in the dark at 4°C. Cells were detected by flow cytometry on a CytoFLEX instrument (Beckman Coulter Life Sciences, Indianapolis, IN, USA).

CSC221 cells = test: MTT cell viability, CSC221; type: cell-based; conditions: Homo sapiens; 48 h, MTT assay
Protocol: as §1

Structure (SMILES) | AUC(0-t) ([1]; IP 10 mg/kg) | Cmax ([1]; IP 10 mg/kg) | Tmax ([1]; IP 10 mg/kg) | AUC(0-inf) ([1]; IP 10 mg/kg) | AUC(0-t) ([1]; PO 10 mg/kg) | Cmax ([1]; PO 10 mg/kg) | Tmax ([1]; PO 10 mg/kg) | IC50 (NIH3T3 cells) | caspase 3/7 activity (caspase 3/7 in CRC cells) | number of invaded cells (CRC cells) | cell-cycle distribution [2] | IC50 (CSC221 cells)
COCCOc1c(C)c(OC(=O)c2c(C)cc(OC)c(C)c2OC)cc(C)c1C(=O)OC [SB4, 4-(Methoxycarbonyl)-3-(2-methoxyethoxy)-2,5-dimethylphenyl 2,4-dimethoxy-3,6-dimethylbenzoate] | 173 ± 16.3 ng·h/mL | 60.8 ± 18.2 ng/mL | 0.31 ± 0.13 h | 394 ± 172 ng·h/mL | 113 ± 19.2 ng·h/mL | 27.8 ± 14.7 ng/mL | 2.88 ± 2.59 h | 121 µM | induced | significantly reduced the number of invaded cells | induced Sub G1 and G2/M populations while G1 population decreased | 60 µM
COCCCOc1c(C)c(OC(=O)c2c(C)cc(OC)c(C)c2OC)cc(C)c1C(=O)OC [SB5, 4-(Methoxycarbonyl)-3-(3-methoxypropoxy)-2,5-dimethylphenyl 2,4-dimethoxy-3,6-dimethylbenzoate] | 108 ± 17.9 ng·h/mL | 45.63 ± 0.31 ng/mL | 0.31 ± 0.13 h | 209 ± 32.4 ng·h/mL | 87.1 ± 11.8 ng·h/mL | 22 ± 8.01 ng/mL | 4.13 ± 2.59 h | 112 µM | induced | significantly reduced the number of invaded cells | induced Sub G1 and G2/M populations while G1 population decreased | 131 µM
